{"source": "patent US20030228343A1", "about": "“Method for controlling a population of social insects using 1-arylpyrazoles or 1-heteroarylpyrazoles” (priority 1995, published 2003)", "key": {"[1]": {"tested_on": "Lasius niger", "assay": "Honey bait placed near an active anthill, population destruction", "format": "in vivo", "conditions": "10 g of a 0.05% dispersion in honey", "text": "A watch glass containing 10 g of a 0.05% dispersion of compound A in honey is placed 20 cm from the entrance to an active anthill. The ants are of the species Lasius niger, for which the fraction of workers whose function is to collect food is in the region of 10% of the total population. The total population is estimated by a count carried out on an untreated anthill, referred to as the control, containing 10,000 individuals.\nDuring the first 2 days, it is observed that the ants head in a column from the anthill to the watch glass, stop to take up the dispersion and then return to the anthill.\nAn update on the latter is then obtained by excavation."}, "[2]": {"tested_on": "Blatella Germanica cockroaches", "assay": "Bait pellet test on cockroaches in boxes, with later introduction of healthy cockroaches", "format": "in vivo", "conditions": "2.7 g bait pellet with 1.35 mg active, bait removed after 8 hours and 15 new healthy cockroaches added", "protocol": "Tests are carried out on Blatella Germanica cockroaches in boxes 36×24×14 cm in size. These boxes comprise a source of water, a shelter consisting of piled pieces of cardboard, and additional food consisting of biscuit pieces.\n15 cockroaches are introduced into the box without bait.\nAfter 24 hours, a 2.7 g pellet of bait with 1.35 mg of product of formula (I) is introduced into the box.\nAfter a further 8 hours, the bait and the additional food are removed and 15 new healthy cockroaches are introduced."}}, "data": [{"smiles": "N#Cc1nn(-c2c(Cl)cc(C(F)(F)F)cc2Cl)c(N)c1[S+]([O-])C(F)(F)F", "note": "(centres unmarked) [compound A, 5-amino-3-cyano-I-[2,6-dichloro4-(trifluoromethyl)phenyl]-4[(trifluoromethyl)sulfinyl]-IH-pyrazole]", "values": [{"measurement": "destruction rate", "setting": "[1]; 20 cm from anthill entrance, excavation after 15 days, total population about 10,000 individuals", "value": "greater than 99%"}, {"measurement": "surface activity around the anthill", "setting": "[1]; after 15 days", "value": "no further surface activity"}, {"measurement": "destruction of larvae in the anthill", "setting": "[1]; excavation after 15 days", "value": "all the larvae have been destroyed"}, {"measurement": "cockroaches dead", "setting": "[2]; 64 hours after introduction of the bait", "value": 98.6, "unit": "%"}, {"measurement": "cockroaches dead", "setting": "[2]; after 88 hours", "value": 100, "unit": "%"}]}]}
